≈ marks a conversion by molar mass, not a printed value. Where two headings read alike, the source gives them in different places.
Legend:
[1] = tested on: Klebsiella pneumonia 52,145; assay: Experimental infection with Klebsiella pneumonia in mice (D); format: in vivo
Method: The activity of the products of Examples 19 and 21 was studied on an experimental infection of Klebsiella pneumonia in mice. Groups of 10 male mice weighing 21.5 g received intraperitoneally 0.5 ml of a 24 hour culture in nutritive media of Klebsiella pneumonia 52,145 diluted by 1/1000 with distilled water. The products were administered subcutaneously 1,5 and 24 hours after the injection and the number of dead mice were determined using 10th days.

[2] = tested on: Escherichia coli (T) O26 B6; assay: Experimental infection with Escherichia coli (T) O26 B6 in mice; format: in vivo
Method: The products of Example 6 and 10 were studied for their activity against an experimental infection of Escherichia coli in groups of 10 male mice weighing about 22 g. The mice received an intraperitoneal injection of 0.5 ml of a 24 hour old culture in a nutritive media of Escherichia coli (T) O26 B6 of the Pasteur Institute diluted 1/5.5 with distilled water. The test product was administered subcutaneously or orally 1 hour and 5 and 24 hours after the infection and the number of dead was determined during 8 days.

[3] = tested on: Escherichia Coli Resistant Tetracycline ATCC 11 303; assay: MIC, liquid medium dilution; format: cell-based
Method: (§1) The method used was a dilution of a liquid medium where a series of tubes received the same quantity of a sterile nutritive media and increasing doses of the test compounds were placed therein. Then each tube was seeded with a bacterial strain and was incubated for 24 or 48 hours at 37° C. in an oven. The increasing inhibition was determined by transillumination to determine the minimum inhibiting concentration (MIC in μg/ml) and the results are reported in the following Tables.

[4] = tested on: Klebsiella pneumoniae Exp. 52 145; assay: MIC, liquid medium dilution; format: cell-based; details: read-out: MIC
Method: as §1

[5] = tested on: Proteus vulgaris (indol+) A 232; assay: MIC, liquid medium dilution; format: cell-based
Method: as §1

[6] = tested on: Klebsiella pneumoniae 2 536 Resistant Gentamicine; assay: MIC, liquid medium dilution; format: cell-based
Method: as §1

[7] = tested on: Escherichia Coli Exp. TO26 B6; assay: MIC, liquid medium dilution; format: cell-based
Method: as §1

[8] = tested on: Staphylococcus aureus ATCC 6 538 Pen-Sensitive; assay: MIC, liquid medium dilution; format: cell-based
Method: as §1

[9] = tested on: Bacillus subtilis ATCC 6 633; assay: MIC, liquid medium dilution; format: cell-based
Method: as §1

[10] = tested on: Escherichia Coli Resistant Gentamicine, Tobramycine R 55 123 D; assay: MIC, liquid medium dilution; format: cell-based
Method: as §1

[11] = tested on: Serratia Resistant Gentamicine 2 532; assay: MIC, liquid medium dilution; format: cell-based
Method: as §1

[12] = tested on: Proteus mirabilis (indol-) A 235; assay: MIC, liquid medium dilution; format: cell-based
Method: as §1

[13] = tested on: Streptococcus faecalis 99 F 74; assay: MIC, liquid medium dilution; format: cell-based; details: Enterococcus faecalis
Method: as §1

[14] = tested on: Streptococcus pyogenes A 561; assay: MIC, liquid medium dilution; format: cell-based
Method: as §1

[15] = tested on: Staphylococcus aureus exp. n° 54 146; assay: MIC, liquid medium dilution; format: cell-based
Method: as §1

[16] = tested on: Escherichia Coli Sensitive Tetracycline ATCC 9 637; assay: MIC, liquid medium dilution; format: cell-based
Method: as §1

[17] = tested on: Staphylococcus aureus UC 1 128 Pen-Resistant; assay: MIC, liquid medium dilution; format: cell-based
Method: as §1

[18] = tested on: Salmonella typhimurium 420; assay: MIC, liquid medium dilution; format: cell-based; details: Salmonella enterica
Method: as §1

Providencia Du 48 = assay: MIC, liquid medium dilution; format: cell-based
Method: as §1

[19] = tested on: Streptococcus faecalis 5 432; assay: MIC, liquid medium dilution; format: cell-based
Method: as §1

[20] = Enterococcus faecalis, 5432, 24 h
[21] = Enterococcus faecalis, 5432, 48 h

## CO/N=C(\C(=O)NC1C(=O)N2C(C(=O)O)=C(CSc3nnc(C)s3)CS[C@H]12)c1csc(N)n1 (stereo partly shown) [Example 19, sodium 7-[{2-(2-amino-4-thiazolyl)-2-methoxyiminoacetyl}amino]-3-[(2-methyl-1,3,4-thiadiazol-5-yl)-thiomethyl]-ceph-3-eme-4-carboxylate]
[1]; subcutaneous, 0,1 mg
  Mice alive on the 10th day: 9/10
  Mortality after 6eJ (number of dead of 10): 1
[1]; subcutaneous, 0,05 mg
  Mice alive on the 10th day: 6/10
  Mortality after 4eJ (number of dead of 10): 1
  Mortality after 5eJ (number of dead of 10): 2
  Mortality after 7eJ (number of dead of 10): 1
[1]; subcutaneous, 0,5 mg
  Mice alive on the 10th day: 10/10
[1]; subcutaneous, 0,25 mg
  Mice alive on the 10th day: 10/10
[1]; subcutaneous, 1 mg
  Mice alive on the 10th day: 10/10

## CO/N=C(\C(=O)NC1C(=O)N2C(C(=O)O)=C(C)CSC12)c1csc(N)n1 (stereo not shown) [Example 10, 7-[{2-(2-amino-4-thiazolyl)-2-methoxyimino}acetylamino]-3-methyl-ceph-3-eme-4-carboxylic acid]
[2]; per os, 3 × 0,5 mg
  Mice surviving on the 8th day: 2/10
  Mortality after 5 J (number of dead of 10): 1
  Mortality after 6 J (number of dead of 10): 2
  Mortality after 21 H 30 (number of dead of 10): 2
  Mortality after 47 H (number of dead of 10): 1
  Mortality after 70 H (number of dead of 10): 2
[2]; per os, 3 × 0,25 mg
  Mice surviving on the 8th day: 2/10
  Mortality after 21 H 30 (number of dead of 10): 6
  Mortality after 24 H 30 (number of dead of 10): 1
  Mortality after 24 H (number of dead of 10): 1
[2]; per os, 3 × mg
  Mice surviving on the 8th day: 7/10
  Mortality after 21 H 30 (number of dead of 10): 1
  Mortality after 47 H (number of dead of 10): 2
[2]; s. c., 3 × 0,1 mg
  Mice surviving on the 8th day: 6/10
  Mortality after 21 H 30 (number of dead of 10): 3
  Mortality after 47 H (number of dead of 10): 1
[2]; s. c., 3 × 0,5 mg
  Mice surviving on the 8th day: 8/10
  Mortality after 47 H (number of dead of 10): 2
[2]; s. c., 3 × 0,25 mg
  Mice surviving on the 8th day: 7/10
  Mortality after 5 H 30 (number of dead of 10): 1
  Mortality after 28 H (number of dead of 10): 1
  Mortality after 54 H (number of dead of 10): 1
[3]; ATCC11, 24 h
  MIC: 0.2 µg/mL (≈ 0.503 µM)
[3]; ATCC11, 48 h
  MIC: 0.2 µg/mL (≈ 0.503 µM)
[4]; EXP.52145, 24 h
  MIC: 0.1 µg/mL (≈ 0.252 µM)
[4]; EXP.52145, 48 h
  MIC: 0.1 µg/mL (≈ 0.252 µM)
[5]; 24 h
  MIC: 3 µg/mL (≈ 7.55 µM)
[5]; 48 h
  MIC: 20 µg/mL (≈ 50.3 µM)
[6]; 24 h, read-out: MIC
  MIC: 0.6 µg/mL (≈ 1.51 µM)
[6]; 48 h
  MIC: 2 µg/mL (≈ 5.03 µM)
[7]; 24 h
  MIC: 0.4 µg/mL (≈ 1.01 µM)
[7]; 48 h
  MIC: 0.6 µg/mL (≈ 1.51 µM)
[8]; ATCC6, 24 h
  MIC: 20 µg/mL (≈ 50.3 µM)
[8]; ATCC6, 48 h
  MIC: 40 µg/mL (≈ 101 µM)
[9]; ATCC6, 24 h
  MIC: 20 µg/mL (≈ 50.3 µM)
[9]; ATCC6, 48 h
  MIC: > 40 µg/mL
[10]; 24 h, read-out: MIC
  MIC: 0.6 µg/mL (≈ 1.51 µM)
[10]; 48 h
  MIC: 0.6 µg/mL (≈ 1.51 µM)
[11]; 24 h
  MIC: 5 µg/mL (≈ 12.6 µM)
[11]; 48 h, read-out: MIC
  MIC: 10 µg/mL (≈ 25.2 µM)
[12]; 24 h, read-out: MIC
  MIC: 0.1 µg/mL (≈ 0.252 µM)
[12]; 48 h
  MIC: 0.2 µg/mL (≈ 0.503 µM)
[13]; 99F74, 24 h
  MIC: 20 µg/mL (≈ 50.3 µM)
[13]; 99F74, 48 h
  MIC: > 40 µg/mL
[14]; A561, 24 h
  MIC: 0.05 µg/mL (≈ 0.126 µM)
[14]; A561, 48 h, read-out: MIC
  MIC: 0.05 µg/mL (≈ 0.126 µM)
[15]; 24 h
  MIC: 40 µg/mL (≈ 101 µM)
[15]; 48 h
  MIC: 40 µg/mL (≈ 101 µM)
[16]; ATCC9, 24 h, read-out: MIC
  MIC: 0.6 µg/mL (≈ 1.51 µM)
[16]; ATCC9, 48 h
  MIC: 0.6 µg/mL (≈ 1.51 µM)
[17]; UC1, 24 h
  MIC: 40 µg/mL (≈ 101 µM)
[17]; UC1, 48 h
  MIC: 40 µg/mL (≈ 101 µM)
[18]; 24 h, read-out: MIC
  MIC: 0.6 µg/mL (≈ 1.51 µM)
[18]; 48 h
  MIC: 0.6 µg/mL (≈ 1.51 µM)
Providencia Du 48; DU48, 24 h
  MIC: 2 µg/mL (≈ 5.03 µM)
Providencia Du 48; DU48, 48 h
  MIC: 5 µg/mL (≈ 12.6 µM)
[19]; [20]
  MIC: 20 µg/mL (≈ 50.3 µM)
[19]; [21]
  MIC: > 40 µg/mL

## CO/N=C(/C(=O)NC1C(=O)N2C(C(=O)O)=C(C)CS[C@H]12)c1csc(N)n1 (stereo partly shown) [Example 15, 7-[{2-(2-amino-4-thiazolyl)-2-methoxyiminoacetyl}amino]-3-methyl-ceph-3-eme-4-carboxylic acid]
[3]; ATCC11, 24 h
  MIC: > 100 µg/mL
[3]; ATCC11, 48 h
  MIC: > 100 µg/mL
[4]; EXP.52145, 24 h
  MIC: 100 µg/mL (≈ 252 µM)
[4]; EXP.52145, 48 h
  MIC: 100 µg/mL (≈ 252 µM)
[5]; 24 h
  MIC: > 100 µg/mL
[5]; 48 h
  MIC: > 100 µg/mL
[6]; 24 h
  MIC: > 100 µg/mL
[6]; 48 h
  MIC: > 100 µg/mL
[7]; 24 h
  MIC: > 100 µg/mL
[7]; 48 h
  MIC: > 100 µg/mL
[8]; ATCC6, 24 h
  MIC: > 100 µg/mL
[8]; ATCC6, 48 h
  MIC: > 100 µg/mL
[9]; ATCC6, 24 h
  MIC: > 100 µg/mL
[9]; ATCC6, 48 h
  MIC: > 100 µg/mL
[10]; 24 h
  MIC: > 100 µg/mL
[10]; 48 h
  MIC: > 100 µg/mL
[11]; 24 h
  MIC: > 100 µg/mL
[11]; 48 h
  MIC: > 100 µg/mL
[12]; 24 h, read-out: MIC
  MIC: 20 µg/mL (≈ 50.3 µM)
[12]; 48 h, read-out: MIC
  MIC: 40 µg/mL (≈ 101 µM)
[13]; 99F74, 24 h
  MIC: > 100 µg/mL
[13]; 99F74, 48 h
  MIC: > 100 µg/mL
[14]; A561, 24 h
  MIC: 2 µg/mL (≈ 5.03 µM)
[14]; A561, 48 h
  MIC: 3 µg/mL (≈ 7.55 µM)
[15]; 24 h
  MIC: > 100 µg/mL
[15]; 48 h
  MIC: > 100 µg/mL
[16]; ATCC9, 24 h
  MIC: > 100 µg/mL
[16]; ATCC9, 48 h
  MIC: > 100 µg/mL
[17]; UC1, 24 h
  MIC: > 100 µg/mL
[17]; UC1, 48 h
  MIC: > 100 µg/mL
[18]; 24 h
  MIC: > 100 µg/mL
[18]; 48 h
  MIC: > 100 µg/mL
Providencia Du 48; DU48, 24 h
  MIC: > 100 µg/mL
Providencia Du 48; DU48, 48 h
  MIC: > 100 µg/mL
[19]; [20]
  MIC: > 100 µg/mL
[19]; [21]
  MIC: > 100 µg/mL

Source: patent publication US4476122A, “Alkyloximes of 7-amino-thiazolyl-acetamido-cephalosporanic acids” (Roussel Uclaf, priority 1976, dated 1984)
